According to ChEMBL document CHEMBL1134086, “Discovery of potent and selective phenylalanine derived CCR3 receptor antagonists. Part 2” (Bioorg Med Chem Lett, 2001):

Key:
[1] = molecular target: T1, C-C chemokine receptor type 3 (Homo sapiens, UniProt P51677); experiment: Antagonist activity against C-C chemokine receptor type 3; type: functional
T1 sequence (P51677 whole entry): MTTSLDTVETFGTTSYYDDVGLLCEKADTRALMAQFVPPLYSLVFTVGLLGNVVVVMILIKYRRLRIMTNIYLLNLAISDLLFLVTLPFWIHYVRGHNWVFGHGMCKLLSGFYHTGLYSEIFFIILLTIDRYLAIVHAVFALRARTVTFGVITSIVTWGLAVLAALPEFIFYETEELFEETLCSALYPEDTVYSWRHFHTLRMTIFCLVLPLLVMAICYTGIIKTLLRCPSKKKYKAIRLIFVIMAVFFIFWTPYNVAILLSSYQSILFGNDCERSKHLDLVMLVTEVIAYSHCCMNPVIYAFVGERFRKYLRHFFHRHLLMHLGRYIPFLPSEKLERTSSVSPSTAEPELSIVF

[2] = species: Homo sapiens; experiment: Ability to block the eotaxin induced intracellular calcium mobilization in primary human eosinophils was determined; type: functional

| SMILES | IC50 [1] | IC50 [2] |
| --- | --- | --- |
| C=C(NC(=O)[C@H](Cc1ccc([N+](=O)[O-])cc1)NC(=O)c1cccc2ccccc12)C(=O)OCC | 350 nM | – |
| C[C@@H](NC(=O)[C@H](Cc1ccc([N+](=O)[O-])cc1)NC(=O)c1cccc2ccccc12)C(=O)OC(C)(C)C | 20 nM | – |
| C[C@H](NC(=O)[C@H](Cc1ccncc1)NC(=O)c1cccc2ccccc12)C(=O)Nc1ccc(-c2ccccc2)cc1 | 600 nM | – |
| Cc1ccc(C(=O)N[C@@H](Cc2ccc(Cl)cc2)C(=O)N[C@@H](C)C(=O)Nc2ccc(Cl)cc2)c(C)c1 | 45 nM | – |
| COc1ccc(NC(=O)[C@H](C)NC(=O)[C@H](Cc2cscn2)NC(=O)c2cccc3ccccc23)cc1 | 500 nM | – |
| O=C(N[C@@H](Cc1ccc([N+](=O)[O-])cc1)c1nccs1)c1cccc2ccccc12 | 32000 nM | – |
| O=C(N[C@@H](Cc1ccc([N+](=O)[O-])cc1)c1nc(C(=O)N2CCc3ccccc3C2)cs1)c1cccc2ccccc12 | 12500 nM | – |
| O=C(Nc1ccccc1)c1csc([C@H](Cc2ccc([N+](=O)[O-])cc2)NC(=O)c2cccc3ccccc23)n1 | 7700 nM | – |
| C[C@H](NC(=O)[C@H](Cc1ccc([N+](=O)[O-])cc1)NC(=O)c1cccc2ccccc12)C(=O)Nc1ccccc1 | 190 nM | – |
| COc1ccc(NC(=O)[C@H](C)NC(=O)[C@H](Cc2ccncc2)NC(=O)c2cccc3ccccc23)cc1 | > 1220 nM | – |
| CCOC(=O)[C@@H](C)NC(=O)[C@H](Cc1ccc([N+](=O)[O-])cc1)NC(=O)c1cccc2ccccc12 | 3 nM | – |
| O=C(N[C@@H](Cc1ccc([N+](=O)[O-])cc1)C(=O)N[C@H](C(=O)Nc1ccccc1)c1ccccc1)c1cccc2ccccc12 | 116 nM | – |
| C[C@H](NC(=O)[C@H](Cc1ccc(Cl)cc1)NC(=O)c1cccc2ccccc12)C(=O)Nc1cccnc1 | 27 nM | – |
| O=C(N[C@@H](Cc1ccc([N+](=O)[O-])cc1)C1=NCCO1)c1cccc2ccccc12 | 563 nM | 600 nM |
| O=C(CNC(=O)[C@H](Cc1ccc([N+](=O)[O-])cc1)NC(=O)c1cccc2ccccc12)Nc1ccccc1 | 400 nM | – |
| CCOC(=O)C1COC([C@H](Cc2ccc([N+](=O)[O-])cc2)NC(=O)c2cccc3ccccc23)=N1 (some centres not stated) | 213 nM | – |
| COc1ccccc1NC(=O)[C@H](C)NC(=O)[C@H](Cc1ccc(C#N)cc1)NC(=O)c1cccc2ccccc12 | 125 nM | – |
| CCNC(=O)C(C)NC(=O)[C@H](Cc1ccc([N+](=O)[O-])cc1)NC(=O)c1cccc2ccccc12 (some centres not stated) | 666 nM | – |
| C[C@H](NC(=O)[C@H](Cc1cscn1)NC(=O)c1cccc2ccccc12)C(=O)Nc1ccc(Cl)cc1 | 800 nM | – |
| COC(=O)[C@H](Cc1ccc([N+](=O)[O-])cc1)NC(=O)c1cccc2ccccc12 | – | 38 nM |

| SMILES | IC50 [1] | IC50 [2] |
| --- | --- | --- |
| C[C@@H](C(=O)Nc1ccccc1)N(C)C(=O)[C@H](Cc1ccc([N+](=O)[O-])cc1)NC(=O)c1cccc2ccccc12 | 65 nM | – |
| CC(NC(=O)[C@H](Cc1ccc([N+](=O)[O-])cc1)NC(=O)c1cccc2ccccc12)C(=O)NCc1ccccc1 (some centres not stated) | 300 nM | – |
| COc1ccc(NC(=O)[C@H](C)NC(=O)[C@H](CC2CCCCC2)NC(=O)c2cccc3ccccc23)cc1 | 700 nM | – |
| CC(NC(=O)[C@H](Cc1ccc([N+](=O)[O-])cc1)NC(=O)c1cccc2ccccc12)C(=O)N1CCCC1 (some centres not stated) | 1130 nM | – |
| CCOC(=O)c1csc([C@H](Cc2ccc([N+](=O)[O-])cc2)NC(=O)c2cccc3ccccc23)n1 | 663 nM | – |
| CCOC(=O)[C@H](C)NC(=O)[C@H](Cc1ccc([N+](=O)[O-])cc1)NC(=O)c1cccc2ccccc12 | 383 nM | – |
| COc1ccc(NC(=O)[C@H](C)NC(=O)[C@H](Cc2ccc(Cl)cc2)NC(=O)c2cccc3ccccc23)cc1 | 45 nM | – |
| CCOC(=O)c1coc([C@H](Cc2ccc([N+](=O)[O-])cc2)NC(=O)c2cccc3ccccc23)n1 | 500 nM | – |
| COc1ccc(C[C@H](NC(=O)c2cccc3ccccc23)C(=O)N[C@@H](C)C(=O)Nc2ccccc2OC)cc1 | 15 nM | – |
| COc1ccc(C[C@H](NC(=O)c2cccc3ccccc23)C(=O)N[C@@H](C)C(=O)Nc2ccc(C#N)cc2)cc1 | 250 nM | – |
| CCNC(=O)c1csc([C@H](Cc2ccc([N+](=O)[O-])cc2)NC(=O)c2cccc3ccccc23)n1 | 18000 nM | – |
| COc1ccc(NC(=O)[C@H](C)NC(=O)[C@H](Cc2ccc(C#N)cc2)NC(=O)c2cccc3ccccc23)cc1 | 90 nM | – |
| C[C@H](NC(=O)[C@H](Cc1ccc(Cl)cc1)NC(=O)c1cccc2ccccc12)C(=O)Nc1ccccc1 | 5 nM | 15 nM |
| C[C@H](NC(=O)[C@H](Cc1ccc([N+](=O)[O-])cc1)NC(=O)c1cccc2ccccc12)C(=O)N(C)c1ccccc1 | 600 nM | – |
| O=C(N[C@@H](Cc1ccc([N+](=O)[O-])cc1)c1cnco1)c1cccc2ccccc12 (racemic) | 22500 nM | – |
| O=C(N[C@@H](Cc1ccc([N+](=O)[O-])cc1)c1nnco1)c1cccc2ccccc12 (racemic) | > 33000 nM | – |
| O=C(N[C@@H](Cc1ccc([N+](=O)[O-])cc1)c1ncco1)c1cccc2ccccc12 (racemic) | > 33000 nM | – |
| CCn1ccnc1[C@H](Cc1ccc([N+](=O)[O-])cc1)NC(=O)c1cccc2ccccc12 (racemic; form 1) | > 33000 nM | – |
| CCn1ccnc1[C@H](Cc1ccc([N+](=O)[O-])cc1)NC(=O)c1cccc2ccccc12 (racemic; form 2) | > 33000 nM | – |
| CCn1ccnc1[C@H](Cc1ccc([N+](=O)[O-])cc1)NC(=O)c1cccc2ccccc12 (racemic; form 3) | 17000 nM | – |
